Literature values as cited in patent US9185913B2, “10H-benzo[g]pteridine-2,4-dione derivatives, method for the production thereof, and use thereof” (TRIOPTOTEC GMBH, priority 2011, dated 2015).

Key:
microorganisms [1] = system: microorganisms
microorganisms [2] = system: microorganisms; remark: listed apart in the source

**Q.** For Cc1cc2nc3c(=O)[nH]c(=O)nc-3n(C[C@H](O)[C@H](O)[C@H](O)CO)c2cc1C [riboflavin], which Affinity for microorganisms (microorganisms [1]) is on record?
**A.** low

**Q.** And the Inactivation of microorganisms (microorganisms [2])?
**A.** inadequate

**Q.** For CC(=O)OC[C@@H](OC(C)=O)[C@@H](OC(C)=O)[C@H](Cn1c2nc(=O)[nH]c(=O)c-2nc2cc(C)c(C)cc21)OC(C)=O [tetraacetylriboflavin], which Affinity for microorganisms (microorganisms [1]) is on record?
**A.** low

**Q.** What about the Inactivation of microorganisms (microorganisms [2]) of the same compound?
**A.** inadequate
